# In ChEMBL document CHEMBL3526031, “Mechanistic studies on the absorption and disposition of scutellarin in humans: selective OATP2B1-mediated hepatic uptake is a likely key determinant for its unique pharmacokinetic characteristics” (Drug Metab Dispos, 2012):
# pKi: −log10 of the molar value.
# Experiments:
# [1] = Drug metabolism in human intestinal microsomes assessed as formation of scutellarein-7-O-glucuronide after 7 mins by HPLC/UV analysis; format: ADME, Intestine, Microsome
# Liver microsome [2] = experiment: Ratio of Vmax to Km for drug metabolism in human liver microsomes assessed as formation of scutellarein-7-O-glucuronide after 7 mins by HPLC/UV analysis; format: ADME
# Liver microsome [3] = experiment: Ratio of Vmax to Km for drug metabolism in human liver microsomes assessed as formation of scutellarein-6-O-glucuronide after 7 mins by HPLC/UV analysis; format: ADME
# [4] = Drug metabolism in rat intestinal microsomes assessed as formation of scutellarein-7-O-glucuronide after 7 mins by HPLC/UV analysis; format: ADME, Intestine, Microsome
# [5] = Ratio of Vmax to Km for drug metabolism in human intestinal microsomes assessed as formation of scutellarein-6-O-glucuronide after 7 mins by HPLC/UV analysis; format: ADME, Intestine, Microsome
# Liver microsome [6] = experiment: Ratio of Vmax to Km for drug metabolism in rat liver microsomes assessed as formation of scutellarein-6-O-glucuronide after 7 mins by HPLC/UV analysis; format: ADME
# Liver microsome [7] = experiment: Drug metabolism in human liver microsomes assessed as formation of scutellarein-6-O-glucuronide after 7 mins by HPLC/UV analysis; format: ADME
# [8] = Ratio of Vmax to Km for drug metabolism in human intestinal microsomes assessed as formation of scutellarein-7-O-glucuronide after 7 mins by HPLC/UV analysis; format: ADME, Intestine, Microsome
# Liver microsome [9] = experiment: Drug metabolism in rat liver microsomes assessed as formation of scutellarein-6-O-glucuronide after 7 mins by HPLC/UV analysis; format: ADME
# Liver microsome [10] = experiment: Ratio of Vmax to Km for drug metabolism in rat liver microsomes assessed as formation of scutellarein-7-O-glucuronide after 7 mins by HPLC/UV analysis; format: ADME
# [11] = target: T1, UDP-glucuronosyltransferase 1A1 (Homo sapiens, UniProt P22309); experiment: Drug metabolism assessed as human recombinant UGT1A1-mediated formation of scutellarein-7-O-glucuronide after 25 mins by HPLC/UV analysis; format: ADME
# T1 sequence (P22309 whole entry): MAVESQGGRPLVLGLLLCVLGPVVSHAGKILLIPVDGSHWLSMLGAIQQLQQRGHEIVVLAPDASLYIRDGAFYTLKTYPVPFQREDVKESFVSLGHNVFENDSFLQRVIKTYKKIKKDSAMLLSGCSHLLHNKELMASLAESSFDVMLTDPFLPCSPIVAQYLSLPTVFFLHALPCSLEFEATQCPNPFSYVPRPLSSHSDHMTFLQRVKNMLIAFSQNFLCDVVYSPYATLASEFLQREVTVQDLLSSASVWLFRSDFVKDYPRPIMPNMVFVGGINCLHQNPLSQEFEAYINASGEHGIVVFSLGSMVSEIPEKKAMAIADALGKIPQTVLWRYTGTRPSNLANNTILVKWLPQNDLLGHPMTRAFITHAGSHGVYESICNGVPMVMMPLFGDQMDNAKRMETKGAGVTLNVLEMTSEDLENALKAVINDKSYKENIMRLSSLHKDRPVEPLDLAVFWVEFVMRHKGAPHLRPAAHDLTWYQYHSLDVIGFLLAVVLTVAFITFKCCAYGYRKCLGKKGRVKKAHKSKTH
# Liver microsome [12] = experiment: Drug metabolism in human liver microsomes assessed as formation of scutellarein-7-O-glucuronide after 7 mins by HPLC/UV analysis; format: ADME
# Liver microsome [13] = experiment: Drug metabolism in rat liver microsomes assessed as formation of scutellarein-7-O-glucuronide after 7 mins by HPLC/UV analysis; format: ADME
# [14] = Ratio of Vmax to Km for drug metabolism in rat intestinal microsomes assessed as formation of scutellarein-7-O-glucuronide after 7 mins by HPLC/UV analysis; format: ADME, Intestine, Microsome
# [15] = Drug metabolism in human intestinal microsomes assessed as formation of scutellarein-6-O-glucuronide after 7 mins by HPLC/UV analysis; format: ADME, Intestine, Microsome
compound,measurement,setting,value
O=c1cc(-c2ccc(O)cc2)oc2cc(O)c(O)c(O)c12 [SCUTELLAREIN],pKi,[1],3.40
same,Km,"[1]; human, microsomes, 7 min",5.9 µM
same,Vmax,"[1]; human, microsomes, 7 min",5.45 nmol/min/mg
same,Vmax/Km,Liver microsome [2],1368 µL/min/mg
same,Vmax/Km,Liver microsome [3],97.9 µL/min/mg
same,Km,[4],9 µM
same,Vmax,[4],17.3 nmol/min/mg
same,Vmax/Km,[5],342 µL/min/mg
same,Vmax/Km,Liver microsome [6],577 µL/min/mg
same,Km,Liver microsome [7],16.2 µM
same,Vmax,Liver microsome [7],1.59 nmol/min/mg
same,Vmax/Km,[8],924 µL/min/mg
same,Km,Liver microsome [9],2.86 µM
same,Vmax,Liver microsome [9],1.65 nmol/min/mg
same,Vmax/Km,Liver microsome [10],1361 µL/min/mg
same,pKi,[11],4.38
same,Km,Liver microsome [12],6.32 µM
same,Vmax,Liver microsome [12],8.64 nmol/min/mg
same,Km,Liver microsome [13],7.37 µM
same,Vmax,Liver microsome [13],10 nmol/min/mg
same,Vmax/Km,[14],1924 µL/min/mg
same,Km,[15],7.06 µM
same,Vmax,[15],2.41 nmol/min/mg
